The values that follow come from patent US20240335443A1, “IMIDAZOLOPYRIDAZINE OR PYRAZOLOPYRIMIDINE COMPOUNDS AND COMPOSITIONS” (Anrui Biomedical Technology (Guangzhou) Co., Ltd., priority 2021, published 2024).

Where two headings read alike, the source gives them in different places.

As usually defined, the IC50 is the point on the concentration scale where inhibition reaches its midpoint.

The target of assay [1] is T1, N-terminal His-tagged TYK2 pseudokinase domain (Homo sapiens, UniProt P29597).
T1 construct: the N-terminal His-tagged TYK2 pseudokinase domain; His (N); purchased Pharmaron
Nature of the assay: TYK2 JH2 domain SPA binding assay. The settings on record: displacement of H3 probe (20 nM), 30 min room temperature; class symbols. On the procedure:
TYK2 JH2 Domain Binding Assay
After incubating at room temperature for 30 min, the inhibition was calculated by the displacement of [3H] 3 binding as determined by scintillation counting. Dose-response curves were generated to determine the concentration required to inhibit H3 probe binding by […] (IC50).

The test system of assay [2] is IL-23 induced STAT3 in HEK-Blue™ IL-23 cells. In words: IL-23 induced STAT3 QUANTI-Blue reporter assay in HEK-Blue IL-23 cells. It counts as cell-based. The settings on record: IL-23 0.1 ng/mL, SEAP levels, class symbols, read-out: IL23 reporter assay (IC50 nM). As to the method:
Biological Example 2. IL-23 Induced STAT3 QUANTI-Blue in HEK-Blue™ IL-23 Cells
HEK-Blue™ IL-23 cells were prepared at 2×10^5 cells/ml for adding 5000 cell/well and incubate plates containing compounds+cells for 1 hour at 37° C. Prepare IL-23 (treatment at final conc. 0.1 ng/mL) during incubation and add 2 ul per well of prepared cytokine in media to appropriate wells. The plate is incubated for overnight at 37° C. The next day, QUANTI-Blue solution is prepared. 18 ul of QUANTI-Blue solution per well is added into a new 384-well clear flat bottom plate, then add 2 ul of induced and treated HEK-Blue cell supernatant from overnight plate. Incubate the plate at 37° C. for 2 hours and determine SEAP levels.

[3] abbreviates: HEK-Blue IL-23, HEK-Blue IL-23 cells.

T1 sequence (P29597 589-875 limits assumed): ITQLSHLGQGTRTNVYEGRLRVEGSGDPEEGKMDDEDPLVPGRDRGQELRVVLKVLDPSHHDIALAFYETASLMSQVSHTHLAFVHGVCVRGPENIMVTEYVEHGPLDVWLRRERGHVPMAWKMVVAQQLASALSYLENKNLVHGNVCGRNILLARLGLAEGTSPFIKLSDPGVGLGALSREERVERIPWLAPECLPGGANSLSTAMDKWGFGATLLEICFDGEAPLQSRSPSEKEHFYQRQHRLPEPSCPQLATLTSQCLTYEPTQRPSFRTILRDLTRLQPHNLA

`CNc1cc(Nc2cccn(-c3ccccc3)c2=O)nn2c(C(=O)NC3CCn4ncnc43)cnc12` (racemic) [Compound 47]: the IC50 in assay [1] was 10 to 100 nM; in assay [2] (setting [3]), less than 10 nM.

Turning to `CNc1cc(Nc2cccn(-c3ccn(C)n3)c2=O)nc2c(C(=O)N[C@@H]3C[C@H]4CCO[C@H]43)cnn12` (racemic) [Compound 51], the figures for the IC50 in assay [1] and in assay [2] (setting [3]) were 100 to 1000 nM and 10 to 100 nM, respectively.

For the compound `CNc1cc(Nc2cccn([C@H]3C[C@H](F)C3)c2=O)nn2c(C(=O)NC3CCn4ncnc43)cnc12` (mixture of isomers) [Compound 91], the IC50 in assay [1] and in assay [2] (setting [3]) was 10 to 100 nM in each case.

For `CNc1cc(Nc2cccc3c2OCCC3)nn2c(C(=O)NC(C)c3ncco3)cnc12` (single isomer, unassigned) [Compound 22a], the IC50 in assay [1] is more than 1000 nM; in assay [2] (HEK-Blue IL-23 cells), not below 1000 nM.

Consider `CNc1cc(Nc2cccc3c2OCCC3)nn2c(C(=O)NC(C)c3ncco3)cnc12` (single isomer, unassigned) [Compound 22b], for which the IC50 in assay [1] and in assay [2] (HEK-Blue IL-23 cells) was less than 10 nM throughout.

For the compound `CNc1cc(Nc2cccc3c2OCCC3)nc2c(C(=O)NC(C)c3ncco3)cnn12` (single isomer, unassigned) [Compound 23a], the values for the IC50 in assay [1] and in assay [2] (HEK-Blue IL-23 cells) were 100 to 1000 nM and not below 1000 nM, respectively.

With `CNc1cc(Nc2cccc3c2OCCC3)nc2c(C(=O)NC(C)c3ncco3)cnn12` (single isomer, unassigned) [Compound 23b], the IC50 in assay [1] was less than 10 nM; in assay [2] (HEK-Blue IL-23 cells), 10 to 100 nM.

As to `CNc1cc(Nc2cccn(-c3ccccn3)c2=O)nc2c(C(=O)NC(C)c3ncco3)cnn12` (single isomer, unassigned) [Compound 36b], the IC50 in assay [1] and in assay [2] (HEK-Blue IL-23 cells) was 10 to 100 nM in each case.

Turning to `CNc1cc(Nc2cccn(-c3ccn(C)n3)c2=O)nn2c(C(=O)NC(C)c3ncco3)cnc12` (single isomer, unassigned) [Compound 49a], the values for the IC50 in assay [1] and in assay [2] (HEK-Blue IL-23 cells) were 10 to 100 nM and less than 10 nM, respectively.

In the case of `CNc1cc(Nc2cccn(-c3ccn(C)n3)c2=O)nn2c(C(=O)NC(C)c3ncco3)cnc12` (single isomer, unassigned) [Compound 49b], the IC50 is more than 1000 nM in assay [1] and not below 1000 nM in assay [2] (HEK-Blue IL-23 cells).

On to `CNc1cc(Nc2cccn(CC3CCCO3)c2=O)nn2c(C(=O)N[C@@H]3C[C@H]4CCO[C@H]43)cnc12` (single isomer, unassigned) [Compound 62a], for which the IC50 in assay [1] lay within 100 to 1000 nM; in assay [2] (setting [3]) it was 10 to 100 nM.

For `CNc1cc(Nc2cccn(CC3CCCO3)c2=O)nn2c(C(=O)N[C@@H]3C[C@H]4CCO[C@H]43)cnc12` (single isomer, unassigned) [Compound 62b], the 50% inhibitory concentration (IC50) in assay [1] and in assay [2] (HEK-Blue IL-23 cells) was 10 to 100 nM in each case.

Turning to `[2H]C([2H])([2H])Nc1cc(Nc2cccn(C3CCCC4(COC4)C3)c2=O)nn2c(C(=O)N[C@@H]3C[C@H]4CCO[C@H]43)cnc12` (single isomer, unassigned) [Compound 68a], the IC50 in assay [1] and in assay [2] (setting [3]) was 10 to 100 nM throughout.

With `[2H]C([2H])([2H])Nc1cc(Nc2cccn(C3CCCC4(COC4)C3)c2=O)nn2c(C(=O)N[C@@H]3C[C@H]4CCO[C@H]43)cnc12` (single isomer, unassigned) [Compound 68b], the IC50 in assay [1] is 10 to 100 nM; in assay [2] (HEK-Blue IL-23 cells) it was less than 10 nM.

In the case of `[2H]C([2H])([2H])Nc1cc(Nc2cccn(C3CCCC4(COC4)C3)c2=O)nn2c(C(=O)N[C@@H]3C[C@@H]3F)cnc12` (single isomer, unassigned) [Compound 75a], the IC50 in assay [1] and in assay [2] (HEK-Blue IL-23 cells) was 100 to 1000 nM throughout.

`[2H]C([2H])([2H])Nc1cc(Nc2cccn(C3CCCC4(COC4)C3)c2=O)nn2c(C(=O)N[C@@H]3C[C@@H]3F)cnc12` (single isomer, unassigned) [Compound 75b]: the IC50 in assay [1] and in assay [2] (HEK-Blue IL-23 cells) was 10 to 100 nM in each case.

For `CNc1cc(Nc2cccn(C3C[C@H]4CC[C@@H](C3)O4)c2=O)nn2c(C(=O)N[C@@H]3C[C@@H]3F)cnc12` (single isomer, unassigned) [Compound 79a], the IC50 in assay [1] and in assay [2] (setting [3]) was 10 to 100 nM each time.

Turning to `CNc1cc(Nc2cccn(C3C[C@H]4CC[C@@H](C3)O4)c2=O)nn2c(C(=O)N[C@@H]3C[C@@H]3F)cnc12` (single isomer, unassigned) [Compound 79b], the IC50 was 10 to 100 nM in assay [1] and less than 10 nM in assay [2] (HEK-Blue IL-23 cells).

`CNc1cc(Nc2cccn([C@H]3C[C@H](OC)C3)c2=O)nn2c(C(=O)NC3CCC4CCOC43)cnc12` (single isomer, unassigned) [Compound 88a]: the values for the IC50 in assay [1] and in assay [2] (HEK-Blue IL-23 cells) were 10 to 100 nM and less than 10 nM, respectively.

As for `CNc1cc(Nc2cccn([C@H]3C[C@H](OC)C3)c2=O)nn2c(C(=O)NC3CCC4CCOC43)cnc12` (single isomer, unassigned) [Compound 88b], the IC50 in assay [1] and in assay [2] (HEK-Blue IL-23 cells) was 100 to 1000 nM each time.

Consider `CNc1cc(Nc2cccn(C3CC(C)(OC)C3)c2=O)nn2c(C(=O)N[C@@H]3C[C@H]4CCO[C@H]43)cnc12` (single isomer, unassigned) [Compound 92a], for which the IC50 in assay [1] and in assay [2] (setting [3]) was 10 to 100 nM each time.

In the case of `[2H]C([2H])([2H])OC1(C)CC(n2cccc(Nc3cc(NC)c4ncc(C(=O)N[C@@H]5C[C@H]6CCO[C@H]65)n4n3)c2=O)C1` (single isomer, unassigned) [Compound 93a], the IC50 in assay [1] and in assay [2] (setting [3]) was 10 to 100 nM each time.

On to `[2H]C([2H])([2H])OC1(C)CC(n2cccc(Nc3cc(NC)c4ncc(C(=O)N[C@@H]5C[C@H]6CCO[C@H]65)n4n3)c2=O)C1` (single isomer, unassigned) [Compound 93b], for which the half-inhibitory concentration (IC50) in assay [1] and in assay [2] (HEK-Blue IL-23 cells) was 10 to 100 nM throughout.

As for `[2H]C([2H])([2H])Nc1cc(Nc2cccn(C3CC4OCCC43)c2=O)nn2c(C(=O)N[C@@H]3C[C@H]4CCO[C@H]43)cnc12` (single isomer, unassigned) [Compound 94a], the IC50 in assay [1] and in assay [2] (setting [3]) was 10 to 100 nM each time.

Regarding `[2H]C([2H])([2H])Nc1cc(Nc2cccn(C3CC4OCCC43)c2=O)nn2c(C(=O)N[C@@H]3C[C@H]4CCO[C@H]43)cnc12` (single isomer, unassigned) [Compound 94b], the IC50 in assay [1] and in assay [2] (HEK-Blue IL-23 cells) was 10 to 100 nM each time.

On to `CNc1cc(Nc2cccn([C@@H]3C[C@H]4CCO[C@H]43)c2=O)nn2c(C(=O)NC3CCC4CCOC43)cnc12` (single isomer, unassigned) [Compound 95a], for which the IC50 in assay [1] was 10 to 100 nM; in assay [2] (HEK-Blue IL-23 cells) it was less than 10 nM.

Take `CNc1cc(Nc2cccn([C@@H]3C[C@H]4CCO[C@H]43)c2=O)nn2c(C(=O)NC3CCC4CCOC43)cnc12` (single isomer, unassigned) [Compound 95b]: the values for the IC50 in assay [1] and in assay [2] (HEK-Blue IL-23 cells) were more than 1000 nM and not below 1000 nM, respectively.

Turning to `[2H]C([2H])([2H])Nc1cc(Nc2cccn(C3CC4(CCOC4)C3)c2=O)nn2c(C(=O)N[C@@H]3C[C@H]4CCO[C@H]43)cnc12` (single isomer, unassigned) [Compound 96a], the IC50 in assay [1] and in assay [2] (setting [3]) was 10 to 100 nM each time.

As for `[2H]C([2H])([2H])Nc1cc(Nc2cccn(C3CC4(CCOC4)C3)c2=O)nn2c(C(=O)N[C@@H]3C[C@H]4CCO[C@H]43)cnc12` (single isomer, unassigned) [Compound 96b], the IC50 in assay [1] and in assay [2] (HEK-Blue IL-23 cells) was 10 to 100 nM in each case.

For `[2H]C([2H])([2H])Nc1cc(Nc2cccn(C3CC4(CCOC4)C3)c2=O)nc2c(C(=O)N[C@@H]3C[C@H]4CCO[C@H]43)cnn12` (single isomer, unassigned) [Compound 97a], the IC50 in assay [1] and in assay [2] (setting [3]) was 10 to 100 nM throughout.

Regarding `[2H]C([2H])([2H])Nc1cc(Nc2cccn(C3CC4(CCOC4)C3)c2=O)nc2c(C(=O)N[C@@H]3C[C@H]4CCO[C@H]43)cnn12` (single isomer, unassigned) [Compound 97b], the IC50 in assay [1] and in assay [2] (HEK-Blue IL-23 cells) was 10 to 100 nM throughout.

Regarding `[2H]C([2H])([2H])Nc1cc(Nc2cccn(C3CC4(CCCO4)C3)c2=O)nn2c(C(=O)N[C@@H]3C[C@H]4CCO[C@H]43)cnc12` (single isomer, unassigned) [Compound 98a], the IC50 in assay [1] and in assay [2] (setting [3]) was 10 to 100 nM in each case.

As to `[2H]C([2H])([2H])Nc1cc(Nc2cccn(C3CC4(CCCO4)C3)c2=O)nn2c(C(=O)N[C@@H]3C[C@H]4CCO[C@H]43)cnc12` (single isomer, unassigned) [Compound 98b], the IC50 in assay [1] and in assay [2] (HEK-Blue IL-23 cells) was 10 to 100 nM throughout.

In the case of `[2H]C([2H])([2H])Nc1cc(Nc2cccn(C3CC4OCCC43)c2=O)nn2c(C(=O)N[C@@H]3C[C@@H]3F)cnc12` (single isomer, unassigned) [Compound 101a], the IC50 in assay [1] and in assay [2] (setting [3]) was 10 to 100 nM each time.

As for `[2H]C([2H])([2H])Nc1cc(Nc2cccn(C3CC4OCCC43)c2=O)nn2c(C(=O)N[C@@H]3C[C@@H]3F)cnc12` (single isomer, unassigned) [Compound 101b], the IC50 in assay [1] and in assay [2] (HEK-Blue IL-23 cells) was 10 to 100 nM in each case.

In the case of `[2H]C([2H])([2H])Nc1cc(Nc2cccn(C3CC4(CCOC4)C3)c2=O)nn2c(C(=O)N[C@@H]3C[C@@H]3F)cnc12` (single isomer, unassigned) [Compound 102a], the IC50 in assay [1] and in assay [2] (setting [3]) was 10 to 100 nM in each case.
